# According to article PMC8131219 (Chemical research in toxicology, 2020):
# Where two headings read alike, the source gives them in different places.
# Key:
# [1] = molecular target: T1, human VMAT2 (Homo sapiens, UniProt Q05940); assay: cell-based; conditions: for VMAT2 inhibitor strength (in words): short-term exposure, up to 100 μM; for Effect on FFN206 uptake / vesicular loading: tested at 0.01, 0.1, 1, 10 and 100 μM
# [2] = molecular target: T1, human VMAT2; assay: Real-time uptake of FFN206 with confocal microscopy in HEK+VMAT2 cells; format: cell-based; conditions: 20 μM FFN206; one-way ANOVA, p <0.0001 vs HEK+VMAT2
# [3] = 100 nM rotenone; after 48 hours; from mitochondrial complex I inhibition; cited from earlier work
# T1 sequence (Q05940 whole entry): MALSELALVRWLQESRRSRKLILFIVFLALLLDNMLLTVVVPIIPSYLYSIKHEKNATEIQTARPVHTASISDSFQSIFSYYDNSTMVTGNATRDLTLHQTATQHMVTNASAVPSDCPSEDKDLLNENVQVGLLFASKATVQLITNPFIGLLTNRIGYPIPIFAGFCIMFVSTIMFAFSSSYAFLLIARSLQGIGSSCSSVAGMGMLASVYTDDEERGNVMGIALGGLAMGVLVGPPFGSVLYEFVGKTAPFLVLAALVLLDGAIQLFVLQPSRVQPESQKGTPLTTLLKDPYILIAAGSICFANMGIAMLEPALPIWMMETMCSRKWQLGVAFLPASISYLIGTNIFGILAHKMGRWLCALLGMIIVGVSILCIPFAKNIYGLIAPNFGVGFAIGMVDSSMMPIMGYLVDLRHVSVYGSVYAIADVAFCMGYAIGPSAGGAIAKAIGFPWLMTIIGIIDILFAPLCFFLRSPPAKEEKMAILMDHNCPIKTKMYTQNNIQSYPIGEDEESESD
molecule,measurement,setting,value
"O=S(=O)(O)C(F)(F)C(F)(F)C(F)(F)C(F)(F)C(F)(F)C(F)(F)C(F)(F)C(F)(F)F [PFOS, perfluorooctanesulfonic acid]",VMAT2 inhibitor strength (in words),[1]; HEK+VMAT2 cells,weak inhibitors of VMAT2
same,Effect on FFN206 uptake / vesicular loading,[1]; HEK+VMAT2 cells,did not show impairment of vesicular loading
hexabromocyclododecane,VMAT2 inhibitor strength (in words),[1]; HEK+VMAT2 cells,weak inhibitors of VMAT2
same,Effect on FFN206 uptake / vesicular loading,[1]; HEK+VMAT2 cells,did not show impairment of vesicular loading
"COC(=O)C(c1ccccc1)C1CCCCN1 (centres unmarked) [methylphenidate, reference compound]",IC50,[1],94.3 µM
C[n+]1ccc(-c2cc[n+](C)cc2)cc1 [paraquat],IC50,[1],12.4 µM
"CO/C1=C\C(C)=C\[C@@H](C)[C@@H](O)[C@@H](C)C/C(C)=C/C=C/[C@H](OC)[C@@H]([C@@H](C)[C@@H](O)[C@H](C)[C@@]2(O)C[C@@H](O)[C@H](C)[C@@H](C(C)C)O2)OC1=O [bafilomycin, reference compound]",Effect on FFN206 fluorescence,"[1]; HEK+VMAT2 cells, 10 μM tetrabenazine, bafilomycin data not shown",depleted FFN206 fluorescence
same,FFN206 fluorescence in final 20 seconds of 1000 seconds uptake vs HEK+VMAT2,[2],decreased FFN206 fluorescence
"COc1cc2c(cc1OC)C1CC(=O)C(CC(C)C)CN1CC2 (centres unmarked) [tetrabenazine, reference compound]",Concentration showing essentially complete / total inhibition of VMAT2,[1],1 µM
same,Effect on FFN206 fluorescence,[1],almost total loss of FFN206 fluorescence
same,FFN206 fluorescence in final 20 seconds of 1000 seconds uptake vs HEK+VMAT2,[2],significant differences
"CN[C@@H](C)Cc1ccccc1 [methamphetamine, reference compound]",IC50,[1],2.4 µM
same,Concentration showing essentially complete / total inhibition of VMAT2,"[1]; HEK+VMAT2 cells, dose response, 1 μM FFN206",≤ 100 µM
C=C(C)[C@H]1Cc2c(ccc3c2O[C@@H]2COc4cc(OC)c(OC)cc4[C@@H]2C3=O)O1 [rotenone],Concentration at which a reduction in VMAT2 function was detected,"[1]; HEK+VMAT2 cells, 90 minutes total exposure",100 µM
same,Effect on FFN206 uptake / vesicular loading,[1]; HEK+VMAT2 cells,minor decrease in FFN206 uptake at the highest concentration
same,Cell death,[3],70–80%
CCOP(=S)(OCC)Oc1nc(Cl)c(Cl)cc1Cl [chlorpyrifos],Effect on FFN206 uptake / vesicular loading,[1]; HEK+VMAT2 cells,minor decrease in FFN206 uptake at the highest concentration
